In patent publication EP0538469A1, “SULFONANILIDE DERIVATIVE AND MEDICINE” (NIPPON SHINYAKU COMPANY, LIMITED, priority 1990, dated 1991):
Structures can show the parent of a compound that is named as a salt. Where two headings read alike, the source gives them in different places.

How the values were obtained:
rats (SD strain, male) = assay: Acute toxicity, oral, rats; format: in vivo; details: observed two weeks
Procedure: (§1) Numbers of mice (ddY-strain, male, 6-8 weeks age) and rats (SD strain, male, 6-7 weeks age) in each group were 4 and 6, respectively.
(§2) The drug to be tested was orally administered at the dose of 10 ml/kg using an oral probe to the animals which were fasted since one day before (for 16-18 hours). After giving the drug, the animals were returned to the state where both feed and water were available and the general symptom and the dead cases, if any, were checked for two weeks. The drug was suspended in physiological saline solution containing 0.5% of methylcellulose (0.5% MC) and the suspension was given to the animals by oral route.

[1] = Acute toxicity, oral, rats; format: in vivo; details: rat, in vivo, SD rats, read-out: Rats LD₅₀
Procedure: as §1, §2

male rabbits = assay: Action to intra urethral pressure and blood pressure, intravenous administration; format: in vivo; details: i.v.; for Selectivity (B/A): BP(ED30%↑) / IUP(ED150%↑), hydrochloride; for ED (30%) / ED (150%): Oryctolagus cuniculus, iv, anesthetized male rabbits; for ED (30%): dose increasing blood pressure to an extent of 30%, read-out: BP(B) [BP(ED30%↑)] (converted); for ED (150%): dose increasing intra urethral pressure to an extent of 150%, read-out: IUP(A) [IUP(ED150%↑)]
Procedure: The experiment was conducted using male rabbits of body weight of 1.4-3.1 kg under fasted condition. The animals were fixed at backs under uretrane(1.2g/kg s.c.) anesthesia, abdomen was subjected to a midline incision and bladder was exposed. In order to prevent the urine stored in the bladder on the intra urethral pressure, the urine in the bladder was compulsorily discharged out of the body. After that, a catheter was inserted into both ureters and the urine discharged from kidney was introduced outside.
The intra urethral pressure(IUP) at the urethra tract of about 0.5-1 cm distance from the neck of the bladder was measured using a microtip transducer transducer equipped with a baloon (filled with physiological saline solution) at the top end. Further, polyethylene tube was inserted into femoral artery to measure the blood pressure (BP).
The drug to be tested was injected into the vein of ear every fifteen minutes and the maximum responses of the increasing action of intra urethral pressure tract and of the increasing action of blood pressure were measured at each dose.

mice (ddY-strain, male) = assay: Acute toxicity, oral, mice; format: in vivo; details: observed two weeks
Procedure: as §1, §2

femoral artery = assay: Contraction of isolated femoral artery (Magnus vessel, cumulative concentration/response curves); format: cell-based, rabbits; details: Oryctolagus cuniculus, female rabbit femoral artery, contraction
Procedure: (§3) The experiment was conducted using female rabbits of 2 to 3.5 kg body weight.
(§4) The animals were killed by draining the blood out under anesthetizing with pentobarbital (30 mg/kg, by intravenous injection) and smooth muscle of urethra and femoral artery were excised. Each of the excised samples was placed in a Magnus vessel filled with a modified Krebs solution (at 37°C; under mixed gas) and both smooth muscle of urethra and femoral artery were suspended with 1 g load.
(§5) The drug to be tested was accumulated to contract the samples whereby the concentration/response curves were obtained wherefrom ED₅₀ (M) and pD₂ were calculated and the selectivity to urethra was determined.

smooth muscle of urethra = assay: Contraction of isolated smooth muscle of urethra (Magnus vessel, cumulative concentration/response curves); format: cell-based, rabbits; details: Oryctolagus cuniculus, female rabbit urethra smooth muscle, contraction
Procedure: as §3, §4, §5

EC50 (femoral artery; read-out: ED₅₀ Femoral Artery(B)) [nM] | EC50 (femoral artery; read-out: pD₂ Femoral Artery(B)) [nM] | EC50 (smooth muscle of urethra; read-out: ED₅₀ Urethra(A)) [µM] | EC50 (smooth muscle of urethra; read-out: pD₂ Urethra(A)) [µM] | SMILES | Rats Dead/ Total (rats (SD strain, male); 30 mg/kg) | Rats Dead/ Total (rats (SD strain, male); 100 mg/kg) | Rats Dead/ Total (rats (SD strain, male); 300 mg/kg) | LD50 at 336 h [1] [mg/kg] | Selectivity (B/A) (male rabbits) | ED (30%) (male rabbits) [mg/kg] | ED (150%) (male rabbits) [mg/kg] | Mice Dead/ Total (mice (ddY-strain, male); 1000 mg/kg) | Mice Dead/ Total (mice (ddY-strain, male); 3000 mg/kg) | Rats Dead/ Total (rats (SD strain, male); 3 mg/kg) | Rats Dead/ Total (rats (SD strain, male); 10 mg/kg)
– | – | – | – | CS(=O)(=O)Nc1cccc(C(O)CN)c1.Cl (racemic) [(24A), (±)-3'-(2-Amino-1-hydroxyethyl)methanesulfonanilide hydrochloride, reference compound] | 0 / 6 | 1 / 6 | 1 / 6 | > 300 | 1.0 | 0.036 | 0.035 | 0 / 4 | 3 / 4 | – | –
– | – | – | – | C[C@H](N)[C@H](O)c1ccc(F)c(NS(C)(=O)=O)c1 (racemic) [(70A), (±)-erythro-5'-(2-Amino-1-hydroxypropyl)-2'-fluoromethanesulfonanilide hydrochloride] | – | – | 2 / 6 | > 300 | 3.6 | 0.1 | 0.028 | – | – | – | –
– | – | – | – | C[C@H](N)[C@H](O)c1cc(NS(C)(=O)=O)ccc1F (racemic) [(59A), (±)-erythro-3'-(2-Amino-1-hydroxypropyl)-4'-fluoromethanesulfonanilide hydrochloride] | – | 0 / 6 | – | > 100 | 1.9 | 0.083 | 0.044 | – | – | – | –
– | – | – | – | CNCC(O)c1cc(NS(C)(=O)=O)ccc1Cl (racemic) [(67A), (±)-4'-Chloro-3'-(1-hydorxy-2-methylaminoethyl)methanesulfonanilide hydrochloride, reference compound] | – | – | 0 / 6 | > 300 | 4.2 | 2.93 | 0.7 | – | – | – | –
– | – | – | – | CNCC(O)c1ccc(F)c(NS(C)(=O)=O)c1.Cl (racemic) [(61A), (±)-2'-Fluoro-5'-(1-hydroxy-2-methylaminoethyl)methanesulfonanilide hydrochloride, reference compound] | – | – | 0 / 6 | > 300 | 1.2 | 0.037 | 0.031 | – | – | – | –
480 | 479 | 3.75 | 3.72 | CNC[C@H](O)c1cccc(O)c1 [Phenylephrine] | – | – | – | – | – | 0.019 | 0.037 | – | – | – | –
– | – | – | – | CNC[C@H](O)c1ccc(F)c(NS(C)(=O)=O)c1 [(61B)] | 1 / 6 | 5 / 6 | 6 / 6 | 36.1 | – | – | – | – | – | 0 / 6 | 2 / 6
